Test results taken from ChEMBL document CHEMBL1201862, “PubChem BioAssay data set” (2004).
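Assay format: 96-well plates, 48-hour exposure. The concentration for 50% growth inhibition is given as GI50.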 Activity calls are given as the source filed them. No stated cut-off is given here; in the data, active = GI50 up to about 1.1 µM and inactive = higher.

Tests used:
Experiment in all cases: NCI anticancer screen, dose series, 48 h
SK-MEL-5 = system: SK-MEL-5
M14 = system: M14
OVCAR-4 = system: OVCAR-4
M19-MEL = system: M19-MEL
U-251 = system: U-251
SK-MEL-28 = system: SK-MEL-28
SK-OV-3 = system: SK-OV-3
OVCAR-5 = system: OVCAR-5
HCT-116 = system: HCT-116
KM12 = system: KM12
LXFL 529 = system: LXFL 529
HT-29 = system: HT-29
HCT-15 = system: HCT-15
TK-10 = system: TK-10
ACHN = system: ACHN
HOP-92 = system: HOP-92
SNB-19 = system: SNB-19
K562 = system: K562
SK-MEL-2 = system: SK-MEL-2
DMS-273 = system: DMS-273
UACC-257 = system: UACC-257
HOP-18 = system: HOP-18
COLO 205 = system: COLO 205
HOP-62 = system: HOP-62
SW-620 = system: SW-620
MOLT-4 = system: MOLT-4
A498 = system: A498
CCRF-CEM = system: CCRF-CEM
A549 = system: A549
OVCAR-3 = system: OVCAR-3
SF-295 = system: SF-295
SR = system: SR
HCC 2998 = system: HCC 2998
UO-31 = system: UO-31
CAKI-1 = system: CAKI-1
NCI-H522 = system: NCI-H522
OVCAR-8 = system: OVCAR-8
SNB-75 = system: SNB-75
RPMI-8226 = system: RPMI-8226
SN12C = system: SN12C
SNB-78 = system: SNB-78
IGROV-1 = system: IGROV-1
Malme-3M = system: Malme-3M
UACC-62 = system: UACC-62
786-0 = system: 786-0
DLD-1 = system: DLD-1
SF-268 = system: SF-268
SF-539 = system: SF-539
NCI-H226 = system: NCI-H226
NCI-H23 = system: NCI-H23
NCI-H460 = system: NCI-H460

Measured: GI50

NC1=NC(Cn2nc(-c3ccccc3)c3ccccc3c2=O)=NNC(=O)N1
> 100 µM: HCT-15
inactive: SK-MEL-5 > 100 µM | M14 > 100 µM | OVCAR-4 > 100 µM | M19-MEL > 100 µM | U-251 > 100 µM | SK-MEL-28 > 100 µM | SK-OV-3 > 100 µM | OVCAR-5 > 100 µM | HCT-116 > 100 µM | KM12 > 100 µM | LXFL 529 > 100 µM | HT-29 > 100 µM | TK-10 > 100 µM | ACHN > 100 µM | HOP-92 > 100 µM | SNB-19 > 100 µM | K562 > 100 µM | SK-MEL-2 > 100 µM | DMS-273 > 100 µM | UACC-257 > 100 µM | HOP-18 > 100 µM | COLO 205 > 100 µM | HOP-62 > 100 µM | SW-620 > 100 µM | MOLT-4 > 100 µM | A498 > 100 µM | CCRF-CEM > 100 µM | A549 > 100 µM | OVCAR-3 > 100 µM | SF-295 > 100 µM | SR > 100 µM | HCC 2998 > 100 µM | UO-31 > 100 µM | CAKI-1 > 100 µM | NCI-H522 > 100 µM | OVCAR-8 > 100 µM | SNB-75 > 100 µM | RPMI-8226 > 100 µM | SN12C > 100 µM | SNB-78 > 100 µM | IGROV-1 > 100 µM | Malme-3M > 100 µM | UACC-62 > 100 µM | 786-0 > 100 µM | DLD-1 > 100 µM | SF-268 > 100 µM | SF-539 > 100 µM | NCI-H226 > 100 µM | NCI-H23 > 100 µM | NCI-H460 > 100 µM
